What all share (type): cell-based
In experiment [1] the test system is Primary human epidermal keratinocytes, HeKa. Nature of the experiment: HeKa cytokine release (IL-8) assay. The conditions noted are these: 6 h, read-out: HeKa cytokine release (IL-8) Rel EC50 range. As to the method: Primary human epidermal keratinocytes, HeKa, were seeded (10.000 cells/well) in 96-well plates the day before the assay. Test compounds were diluted in DMSO (dimethyl sulfoxide) and further diluted in assay medium and pipetted into wells of 96 well-plates containing HeKa cells. The plates were incubated for 6 h at 37° C. in humidified air with 5% CO2. Plates are centrifuged briefly to spin down cells at 4° C., the supernatant was removed and analysed by Meso Scale Discovery (MSD) 4-spot cytokine assay (Pro-inflammatory II Ultra Sensitive kit, MSD, MD, USA). The MSD assay employs a sandwich immunoassay format where capture antibodies were coated in a patterned array on the bottom of the wells of a 4-Spot-Multi-MSD plate. Standard samples were incubated in the MULTI-SPOT plates as well, and the cytokine (IL-8) binds to its corresponding capture antibody spot. The cytokine level was quantitated on a SECTOR™ Imager using a cytokine-specific Detection Antibody labelled with MSD SULFO-TAG™ reagent.
Test compound titration curves were fitted to a four-parameter sigmoidal curve after normalizing the effect of the test compound to the effect of the positive control (1.5×10^−7 M PEP0005). Rel EC50 denotes the concentration of test compound producing an effect that is midway between the fitted top and bottom.

Experiment [2] has as its system PMN's (polymorphonuclear leukocytes). Nature of the experiment: Neutrophil oxidative burst assay. The conditions noted are these: Leukocyte, 40 min, read-out: Neutrophil oxidative burst Rel EC50 range. As to the method: PMN's (polymorphonuclear leukocytes) were isolated and purified from fresh buffy coats by sequential sedimentation, density centrifugation and lysis of contaminating erythrocytes. Buffy coats were incubated with 2% methocel for 30-45 min to differentially sediment red blood cells. The leukocyte-rich supernatant was transferred to lymphoprep tubes to remove mononuclear cells by density centrifugation (400×g, 30 min). The pellet was resuspended and any remaining erythrocytes lysed using 0.2% NaCl for 30 sec before restoring isotonicity by the addition of 1.2% NaCl. This step was repeated until the cell pellet appears relatively free of red blood cells. Cells were resuspended in DPBS (Dulbecco's Phosphate Buffered Saline) (w.o. Ca^2+, Mg^2+) and the concentration adjusted to 1.4×10^6 cells/ml in HBSS (Hanks Balanced Salt solution) (w Ca^2+, Mg^2+) containing 0.1% BSA (Bovine Serum Albumin) and 5 mM glucose just prior to assay initiation. Titrated reference and test compounds were pre-mixed with HE (Hydroethidine) (10 μM final assay concentration) before addition to 96-well plates containing 2.5×10^5 cells. Following 40 min incubation at RT, changes in the respiratory burst was estimated by measuring fluorescence at 579 nm (excitation: 485 nm) using an Envision plate reader.
Test compound titration curves were fitted to a four-parameter sigmoidal curve after normalizing the effect of the test compound to the effect of the positive control (5×10^−7 M PEP0005). Rel EC50 denotes the concentration of test compound producing an effect that is midway between the fitted top and bottom. Abs EC50 is the concentration of test compound that provokes a response corresponding to 50% of the maximal effect associated with the positive control (5×10^−7 M PEP0005).

The test system of experiment [3] is HeLa cells (ATCC CCL-002). Nature of the experiment: Necrosis assay. The note with it: Homo sapiens, 0.5 h, read-out: HeLa necrosis EC50 range. As to the method:
HeLa cells (ATCC CCL-002) were grown in minimal essential medium (Invitrogen catalog no. 42360) containing 10% fetal bovine serum, 100 IU/ml penicillin and 100 μg/ml streptomycin. 4,000-6,000 cells were seeded into 96-well black ViewPlates-plates, clear bottom, (Perkin Elmer) in 100 μl medium and incubated overnight. Compounds were dissolved and pre-diluted in DMSO in 96-well polypropylene plates (Greiner) in a concentration range of 15 μM to 600 μM. At the time of the experiment cell plates were placed on heating blocks at 37° C., medium was removed and 40 μl fresh, pre-warmed medium was added per well. Cells were incubated for 15 min before addition of compounds. In parallel, 3 μl of compounds were diluted with 197 μl growth medium on a Tecan freedom-EVO pipetting station using 250 μl/s pipetting speed, in order to ensure effective mixing of the highly concentrated compound solutions with the aqueous phase. These pre-dilution plates were then equilibrated on heating blocks at 37° C. for 10 min. 80 μl pre-diluted compound were transferred manually to the corresponding wells containing HeLa cells yielding compound concentrations of 10 μM to 400 μM. Control conditions were 1% DMSO in growth medium (100% viability) and 400 μM ingenol mebutate in growth medium (0% viability). Plates were incubated on the heating blocks at 37° C. for 30 min. At the end of the incubation 10 μl PrestoBlue reagent (Invitrogen) were added to each well, plates were sealed with black seal, followed by incubation at 37° C. for 10 min with gentle shaking (150 rpm). Subsequently, plates were placed at room temperature for 20-30 min. Plates were read immediately after on an Envision Fluorescence reader (Perkin Elmer) with excitation at 535 nm and emission at 630 nm. Test compound titration curves were fitted to a four-parameter sigmoidal curve after normalizing the effect of the test compound to the effect of the positive control (4 10^−4 M PEP0005/ingenol mebutate). AbsEC50 denotes the concentration of test compound producing 50% effect.

As usually defined, the EC50 is the concentration giving half of the maximal effect. Consider `CC1=C[C@]23C(=O)[C@@H](C=C(CO)[C@@H](O)[C@]2(O)[C@H]1OC(=O)C1CC1)[C@H]1[C@@H](C[C@H]3C)C1(C)C` [Compound 301, Ingenol 3-(cyclopropanecarboxylate)], for which the EC50 was more than 100 nM in experiment [1] and 20 to 100 nM in experiment [2].

As for `CC1=C[C@]23C(=O)[C@@H](C=C(CO)[C@@H](O)[C@]2(O)[C@H]1OC(=O)C1CCCCC1)[C@H]1[C@@H](C[C@H]3C)C1(C)C` [Compound 302, Ingenol 3-(cyclohexanecarboxylate)], the EC50 is 20 to 100 nM in experiment [1], 150000 to 350000 nM in experiment [3] and less than 20 nM in experiment [2].

Turning to `CC1=C[C@]23C(=O)[C@@H](C=C(CO)[C@@H](O)[C@]2(O)[C@H]1OC(=O)C1CCC1)[C@H]1[C@@H](C[C@H]3C)C1(C)C` [Compound 303, Ingenol 3-(cyclobutanecarboxylate)], the EC50 in experiment [1] is more than 100 nM; in experiment [2], less than 20 nM.

`CC1=C[C@]23C(=O)[C@@H](C=C(CO)[C@@H](O)[C@]2(O)[C@H]1OC(=O)C1CCCC1)[C@H]1[C@@H](C[C@H]3C)C1(C)C` [Compound 304, Ingenol 3-(cyclopentanecarboxylate)]: the results for the EC50 in experiment [1] and in experiment [2] were 20 to 100 nM and less than 20 nM, respectively.

With `CC1=C[C@]23C(=O)[C@@H](C=C(CO)[C@@H](O)[C@]2(O)[C@H]1OC(=O)C1=CCCCC1)[C@H]1[C@@H](C[C@H]3C)C1(C)C` [Compound 305, Ingenol 3-(cyclohexene-1-carboxylate)], the EC50 in experiment [1] and in experiment [2] was less than 20 nM each time.

Turning to `COC(=O)C1(C(=O)O[C@H]2C(C)=C[C@]34C(=O)[C@@H](C=C(CO)[C@@H](O)[C@]23O)[C@H]2[C@@H](C[C@H]4C)C2(C)C)CC1` [Compound 306, Ingenol 3-(1-methoxycarbonyl-cyclopropylcarboxylate)], the figures for the EC50 in experiment [1], in experiment [3] and in experiment [2] were more than 100 nM, more than 350000 nM and 20 to 100 nM, respectively.

With `CC1=C[C@]23C(=O)[C@@H](C=C(CO)[C@@H](O)[C@]2(O)[C@H]1OC(=O)C12C[C@@H]4CC1C[C@@H](C4)C2)[C@H]1[C@@H](C[C@H]3C)C1(C)C` [Compound 307, Ingenol 3-(noradamantane-3-carboxylate)], the figures for the EC50 in experiment [1], in experiment [3] and in experiment [2] were less than 20 nM, 150000 to 350000 nM and less than 20 nM, respectively.

For `CC1=C[C@]23C(=O)[C@@H](C=C(CO)[C@@H](O)[C@]2(O)[C@H]1OC(=O)C1(C)CCCCC1)[C@H]1[C@@H](C[C@H]3C)C1(C)C` [Compound 308, Ingenol 3-(1-methyl-cyclohexanecarboxylate)], the EC50 is less than 20 nM in experiment [1], less than 150000 nM in experiment [3] and less than 20 nM in experiment [2].

With `CC1=C[C@]23C(=O)[C@@H](C=C(CO)[C@@H](O)[C@]2(O)[C@H]1OC(=O)C1(C#N)CCCCC1)[C@H]1[C@@H](C[C@H]3C)C1(C)C` [Compound 309, Ingenol 3-(1-cyano-cyclohexanecarboxylate)], in experiment [2], the EC50 was less than 20 nM.

For `CC1=C[C@]23C(=O)[C@@H](C=C(CO)[C@@H](O)[C@]2(O)[C@H]1OC(=O)c1ccccc1C)[C@H]1[C@@H](C[C@H]3C)C1(C)C` [Compound 310, Ingenol 3-(2-methyl-benzoate)], the EC50 in experiment [1] and in experiment [2] was less than 20 nM each time.

In the case of `CC1=C[C@]23C(=O)[C@@H](C=C(CO)[C@@H](O)[C@]2(O)[C@H]1OC(=O)c1c(Cl)cccc1Cl)[C@H]1[C@@H](C[C@H]3C)C1(C)C` [Compound 317, Ingenol 3-(2,6-dichloro-benzoate)], the results for the EC50 in experiment [1] and in experiment [2] were less than 20 nM and 20 to 100 nM, respectively.

In the case of `CC1=C[C@]23C(=O)[C@@H](C=C(CO)[C@@H](O)[C@]2(O)[C@H]1OC(=O)c1c(Cl)cc(Cl)cc1Cl)[C@H]1[C@@H](C[C@H]3C)C1(C)C` [Compound 318, Ingenol 3-(2,4,6-trichloro-benzoate)], the results for the half-maximal effective concentration (EC50) in experiment [1] and in experiment [2] were less than 20 nM and 20 to 100 nM, respectively.

As for `C=CCOc1cccc(C)c1C(=O)O[C@H]1C(C)=C[C@]23C(=O)[C@@H](C=C(CO)[C@@H](O)[C@]12O)[C@H]1[C@@H](C[C@H]3C)C1(C)C` [Compound 326, Ingenol 3-(2-allyloxy-6-methyl-benzoate)], the results for the 50% effective concentration (EC50) in experiment [3] and in experiment [2] were less than 150000 nM and less than 20 nM, respectively.

In the case of `CC1=C[C@]23C(=O)[C@@H](C=C(CO)[C@@H](O)[C@]2(O)[C@H]1OC(=O)c1c(C)cccc1O)[C@H]1[C@@H](C[C@H]3C)C1(C)C` [Compound 327, Ingenol 3-(2-hydroxy-6-methyl-benzoate)], the EC50 is 150000 to 350000 nM in experiment [3] and less than 20 nM in experiment [2].

In the case of `CC1=C[C@]23C(=O)[C@@H](C=C(CO)[C@@H](O)[C@]2(O)[C@H]1OC(=O)c1c(C)cccc1Cl)[C@H]1[C@@H](C[C@H]3C)C1(C)C` [Compound 328, Ingenol 3-(2-chloro-6-methyl-benzoate)], the values for the EC50 in experiment [3] and in experiment [2] were less than 150000 nM and less than 20 nM, respectively.

In the case of `COc1cc(C)c(C(=O)O[C@H]2C(C)=C[C@]34C(=O)[C@@H](C=C(CO)[C@@H](O)[C@]23O)[C@H]2[C@@H](C[C@H]4C)C2(C)C)c(OC)c1` [Compound 329, Ingenol 3-(2,4-dimethoxy-6-methyl-benzoate)], the EC50 in experiment [3] was less than 150000 nM; in experiment [2], less than 20 nM.

With `COc1cccc(N)c1C(=O)O[C@H]1C(C)=C[C@]23C(=O)[C@@H](C=C(CO)[C@@H](O)[C@]12O)[C@H]1[C@@H](C[C@H]3C)C1(C)C` [Compound 334, Ingenol 3-(2-amino-6-methoxy-benzoate)], the EC50 in experiment [1] and in experiment [2] was 20 to 100 nM each time.

As for `CC(=O)Nc1cccc(C)c1C(=O)O[C@H]1C(C)=C[C@]23C(=O)[C@@H](C=C(CO)[C@@H](O)[C@]12O)[C@H]1[C@@H](C[C@H]3C)C1(C)C` [Compound 337, Ingenol 3-(2-acetylamino-6-methyl-benzoate)], the EC50 in experiment [1] and in experiment [2] was more than 100 nM each time.

As to `CC1=C[C@]23C(=O)[C@@H](C=C(CO)[C@@H](O)[C@]2(O)[C@H]1OC(=O)c1c(C)cccc1NC(=O)C(C)C)[C@H]1[C@@H](C[C@H]3C)C1(C)C` [Compound 338, Ingenol 3-(2-methyl-6-(2-methylpropanoylamino)-benzoate)], the EC50 in experiment [1] and in experiment [2] was more than 100 nM throughout.

`CC1=C[C@]23C(=O)[C@@H](C=C(CO)[C@@H](O)[C@]2(O)[C@H]1OC(=O)C1C(C)(C)C1(C)C)[C@H]1[C@@H](C[C@H]3C)C1(C)C` [Compound 344, Ingenol 3-(2,2,3,3-tetramethylcyclopropylcarboxylate)]: the EC50 in experiment [1] and in experiment [2] was less than 20 nM in each case.

These data come from patent publication US9656945B2, “3-acyl-ingenols II” (LEO LABORATORIES LIMITED, priority 2010, dated 2017).
